The source of these data is publication PMC11477289, “Low-Basicity 5-HT6 Receptor Ligands from the Group of Cyclic Arylguanidine Derivatives and Their Antiproliferative Activity Evaluation” (International Journal of Molecular Sciences, 2024).

The test system of data set [1] is 1321N1 astrocytoma cell line. The data set is described as follows: Antiproliferative activity (MTS), 1321N1. The settings on record: read-out: IC50 Values 1321N1; 72 h, MTS.
The subject of data set [2] is U87MG glioblastoma cells. The data set is described as follows: Antiproliferative activity (MTS), U87MG. The settings on record: read-out: IC50 Values U87MG; 72 h, MTS.
The target of data set [3] is T1, human 5-HT6 (Homo sapiens, UniProt P50406).
T1 construct: expressed in transfected cells
The experiment in a line: [3H]-LSD radioligand binding assay, 5-HT6R. The settings on record: HEK293 expressing human 5-HT6R, read-out: 5-HT6 Ki. Here is the method: Next, the ligands’ affinity for the 5-HT6 receptors was evaluated in the [^3H]-LSD radioligand binding assay. Experiments were performed in a stable HEK293 cell line expressing the human 5-HT6R.
The pellets were stored at −80 °C.

Data set [4] has as its system MCF7 breast carcinoma cell line. The experiment in a line: Antiproliferative activity (MTS), MCF7. Particulars: read-out: IC50 Values MCF7; 72 h, MTS.
Data set [5] can be described thus: Affinity to phospholipids, IAM column (CHI IAM). The settings on record: IAM.PC.DD2 column, pH 7.4. It counts as physicochemical.
Description: We began with an assay for lipophilicity, affinity for phospholipids (for 40 compounds), and drug binding to human serum albumin (HSA) (for 20 compounds), using chromatographic protocols developed by Valko [46] and implemented in our laboratory [47]. […] These methods allowed the determination of chromatographic hydrophobicity indices (CHIs), binding to HSA (%HSA), and phospholipids (CHIIAM) using a single-gradient elution experiment and comparison to reference substances.
The mobile phase flow rate was 1.5 mL/min, and the column was maintained at 30 °C. • Chiralpak® HSA (50 mm × 4 mm; 5 µm with safety guard column; Daicel Chiral Technologies, West Chester, PA, USA), mobile phase A: 50 mM ammonium acetate, mobile phase B: HPLC-grade isopropanol (VWR International, Leuven, Belgium). For the first 15 min, the linear gradient from 0 to 20% isopropanol was applied and then held at 20% isopropanol for 12 min. In the last 5 min of the sequence, the mobile phase mixture received a pure ammonium acetate solution. The column temperature was held at 30 °C, whereas the flow rate was 0.9 mL/min.
The reference substances for the calibration of HSA, C18, and IAM columns were purchased, respectively: acetanilide, butyrophenone, diclofenac, and octanonophenone (Alfa Aesar, Haverhill, MA, USA); acetophenone, benzimidazole, colchicine, indole, indometacin, paracetamol, and theophylline (Sigma-Aldrich, Steinheim, Germany); nicardipine and nizatidine (Cayman Chemical, Ann Arbor, MI, USA); carbamazepine, heptanophenone, hexanophenone, propiophenone, and valerophenone (Acros Organic, Pittsburg, PA, USA). Before chromatographic experiments, solutes were dissolved in dimethyl sulfoxide (Avantor Performance Materials Poland S.A., Gliwice, Poland) to obtain a 200 µg/mL concentration. The detection was performed in the UV region at the wavelength from 190 nm to 300 nm. The injected volume was 5 μL, and each compound was analyzed in triplicate.
A short description of data set [6]: Chromatographic hydrophobicity index on C18 column (lipophilicity). It counts as physicochemical.
The subject of data set [7] is U-251 glioblastoma cells. The data set is described as follows: Antiproliferative activity (MTS), U-251. The settings on record: read-out: IC50 Values U-251; 72 h, MTS.
Data set [8] has as its target 5-HT5A receptor (Homo sapiens, UniProt P47898). The data set is described as follows: [3H]-LSD radioligand binding assay, 5-HT5A. The settings on record: read-out: 5-HT5A Ki; [3H]-LSD, HEK293.
In data set [9] the test system is AsPC-1 pancreas adenocarcinoma cell line. The experiment in a line: Antiproliferative activity (MTS), AsPC-1. The settings on record: read-out: IC50 Values AsPC-1; 72 h, MTS.
Data set [10] concerns the target T2, human serum albumin (HSA) (Homo sapiens, UniProt P02768). The experiment in a line: Binding to HSA, Chiralpak HSA column. The method, boiled down: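 HSA binding (%HSA) was estimated by HPLC on a Chiralpak HSA column at 30 °C and 0.9 mL/min. The gradient ran 0–20% isopropanol in 50 mM ammonium acetate over 15 min, then held 12 min. UV detection covered 190–300 nm, and values were calibrated against reference compounds, in triplicate.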

Data set [11] concerns LN-229 glioblastoma cell line. The experiment in a line: Antiproliferative activity (MTS), LN-229. The settings on record: read-out: IC50 Values LN-229; 72 h, MTS.
Data set [12] addresses T2, human serum albumin (HSA). The arrangement: purchased Daicel Chiral Technologies; method as in PMID 28215942. The settings on record: cited from earlier work.
In data set [13] the test system is HSA and AGP (24:1). The experiment in a line: in vitro. Particulars: human, plasma.
On the set-up of data set [14]: method as in PMID 36183548. Particulars: MLMs, as previously reported ref 30; cited from earlier work.

What is called IC50 is the point on the concentration scale where inhibition reaches its midpoint. The term Ki denotes the dissociation constant of the complex between target and ligand, obtained from inhibition or displacement. As a reminder, the fraction unbound is the share of the substance not bound to proteins or other matrix. Low readings indicate little free substance, high ones much free substance.

T2 sequence (P02768 25-609): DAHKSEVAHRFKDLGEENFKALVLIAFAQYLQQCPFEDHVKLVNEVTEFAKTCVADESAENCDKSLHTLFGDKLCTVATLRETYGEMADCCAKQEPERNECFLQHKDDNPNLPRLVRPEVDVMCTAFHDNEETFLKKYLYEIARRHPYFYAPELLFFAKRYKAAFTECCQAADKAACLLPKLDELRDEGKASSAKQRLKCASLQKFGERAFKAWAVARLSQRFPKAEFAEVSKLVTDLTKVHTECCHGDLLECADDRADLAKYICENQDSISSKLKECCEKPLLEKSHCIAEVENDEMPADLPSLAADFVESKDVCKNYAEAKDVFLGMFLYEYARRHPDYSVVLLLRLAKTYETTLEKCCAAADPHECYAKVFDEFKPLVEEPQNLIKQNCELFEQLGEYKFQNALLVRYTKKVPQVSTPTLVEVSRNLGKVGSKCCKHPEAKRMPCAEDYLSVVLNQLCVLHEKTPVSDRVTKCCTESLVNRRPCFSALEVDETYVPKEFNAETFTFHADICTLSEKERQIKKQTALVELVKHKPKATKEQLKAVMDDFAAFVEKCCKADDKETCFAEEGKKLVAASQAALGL
T1 sequence (P50406 whole entry): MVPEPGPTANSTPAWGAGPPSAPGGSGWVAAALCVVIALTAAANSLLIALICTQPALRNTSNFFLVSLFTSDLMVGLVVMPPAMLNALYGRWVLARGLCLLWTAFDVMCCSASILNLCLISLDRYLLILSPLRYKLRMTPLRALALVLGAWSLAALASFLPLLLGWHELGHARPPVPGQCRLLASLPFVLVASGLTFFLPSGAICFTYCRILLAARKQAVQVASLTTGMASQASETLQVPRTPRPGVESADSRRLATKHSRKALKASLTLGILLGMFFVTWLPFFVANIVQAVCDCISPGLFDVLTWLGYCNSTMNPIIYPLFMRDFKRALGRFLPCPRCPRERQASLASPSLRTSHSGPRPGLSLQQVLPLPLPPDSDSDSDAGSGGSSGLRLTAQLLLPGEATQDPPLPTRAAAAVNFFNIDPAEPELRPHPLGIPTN
Sequence of 5-HT5A receptor (P47898 whole entry): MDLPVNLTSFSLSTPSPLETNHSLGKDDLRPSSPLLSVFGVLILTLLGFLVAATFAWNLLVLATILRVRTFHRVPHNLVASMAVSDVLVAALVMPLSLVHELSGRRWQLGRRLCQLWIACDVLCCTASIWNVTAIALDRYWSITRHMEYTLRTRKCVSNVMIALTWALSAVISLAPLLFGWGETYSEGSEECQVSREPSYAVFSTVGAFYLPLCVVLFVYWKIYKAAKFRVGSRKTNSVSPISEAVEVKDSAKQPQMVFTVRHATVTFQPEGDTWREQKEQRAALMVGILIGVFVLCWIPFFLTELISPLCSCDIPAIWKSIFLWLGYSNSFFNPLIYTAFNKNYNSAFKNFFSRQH

As for “N -[6-(4-methylpiperazin-1-yl)-3,4-dihydroquinazolin-2-yl]naphthalene-1-sulfonamide [PR 66]”, the IC50 in data set [1], in data set [2], in data set [4], in [7], in [9] and in [11] was more than 25 µM throughout. Also, the Ki in data set [3] worked out at 11.6 ± 2.66 µM; in data set [8], 3.44 µM. The “CHI IAM” value in data set [5] is reported as 36.0. For the same molecule, the “CHI C18 pH 2.6” value in [6] (pH 2.6) was determined as 81.4. Besides, the “CHI C18 pH 7.4” value in data set [6] (pH 7.4) is 79.6. In data set [6] (pH 10.5), the “CHI C18 pH 10.5” value was 80.7. The “%HSA” value in data set [10] is given as 92.7%. Also, the logKHSA in data set [10] amounted to 1.0.

`O=c1[nH]c2ccccc2n1C1CCN(CCCC(c2ccc(F)cc2)c2ccc(F)cc2)CC1` [pimozide]: the “affinity to HSA” value in data set [12] is listed as 98.6%.

Turning to `CC(=O)CC(c1ccccc1)c1c(O)c2ccccc2oc1=O` (stereo not drawn) [warfarin], the fraction unbound at 12 min, 20 µM in data set [13] stood at 0.015.

`O=S(=O)(NC1=NCc2ccccc2N1)c1cccc2ccccc12` [PR 40, N -(3,4-dihydroquinazolin-2-yl)naphthalene-1-sulfonamide]: in data set [3], the Ki was 0.651 ± 0.135 µM. Moreover, the metabolized in data set [14] is listed as 97%.
